Legend:
Nitrosomonas europaea = assay: Nitrification inhibition assay with Nitrosomonas europaea (nitrite level after 24 h); assay type: cell-based; conditions: for IC50 / activity at 100 µM: Nitrosomonas europaea; for IC50: 8-point dose response, 2 to 100 μM, read-out: IC50; for activity at 100 µM: tested concentration 100 μM, 24 h, normalized to DMSO (100%) and 100 μM DMP (0%), read-out: Nitrification (%) at tested concentration (0 = maximum activity)
Method in brief: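 Fivefold-concentrated N. europaea culture with ammonium incubated 24 h at 28 °C, shaken, with compound (single-point screen at 50 μM final; dose–response 2–100 μM, 8 points, 1.75-fold steps). Nitrite measured by Griess reagent at 540 nm, normalised per plate to 1% DMSO and 100 μM DMP controls; IC50 from logistic fit.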

Nitrosospira multiformis = assay: Nitrification inhibition assay with Nitrosospira multiformis (nitrite level after 24 h); assay type: cell-based; conditions: for IC50 / activity at 100 µM: Nitrosospira multiformis; for IC50: 8-point dose response, 2 to 100 μM, read-out: IC50; for activity at 100 µM: tested concentration 100 μM, 24 h, normalized to DMSO (100%) and 100 μM DMP (0%), read-out: Nitrification at tested concentration (0 = maximum activity)
Method in brief: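 Dense N. multiformis cultures (5× concentrated in 181-medium) with ammonium were incubated 24 h at 30° C with shaking, then nitrite measured by Griess reagent at 540 nm. Relative nitrification normalised per plate to DMSO and 100 μM DMP controls; IC50 from logistic fit of 8-point doses 2-100 μM.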

| SMILES | IC50 (Nitrosomonas europaea) [µM] | IC50 (Nitrosospira multiformis) [µM] | nitrification inhibition, in words (Nitrosomonas europaea) | Average nitrification [%] in Nitrosomonas europaea (Nitrosomonas europaea; 2 μM) [%] | Average nitrification [%] in Nitrosomonas europaea (Nitrosomonas europaea; 3.5 μM) [%] | Average nitrification [%] in Nitrosomonas europaea (Nitrosomonas europaea; 6 μM) [%] | Average nitrification [%] in Nitrosomonas europaea (Nitrosomonas europaea; 11 μM) [%] | Average nitrification [%] in Nitrosomonas europaea (Nitrosomonas europaea; 19 μM) [%] | Average nitrification [%] in Nitrosomonas europaea (Nitrosomonas europaea; 33 μM) [%] | Average nitrification [%] in Nitrosomonas europaea (Nitrosomonas europaea; 57 μM) [%] | Average nitrification [%] in Nitrosomonas europaea (Nitrosomonas europaea; 100 μM) [%] | activity at 100 µM (Nitrosomonas europaea) [%] | nitrification inhibition, in words (Nitrosospira multiformis) | Average nitrification [%] in Nitrosospira multiformis (Nitrosospira multiformis; 2 μM) [%] | Average nitrification [%] in Nitrosospira multiformis (Nitrosospira multiformis; 3.5 μM) [%] | Average nitrification [%] in Nitrosospira multiformis (Nitrosospira multiformis; 6 μM) [%] | Average nitrification [%] in Nitrosospira multiformis (Nitrosospira multiformis; 11 μM) [%] | Average nitrification [%] in Nitrosospira multiformis (Nitrosospira multiformis; 19 μM) [%] | Average nitrification [%] in Nitrosospira multiformis (Nitrosospira multiformis; 33 μM) [%] | activity at 100 µM (Nitrosospira multiformis) [%] | other results |
| --- | --- | --- | --- | --- | --- | --- | --- | --- | --- | --- | --- | --- | --- | --- | --- | --- | --- | --- | --- | --- | --- |
| S=C1NCCO1 [Example 7] | < 6 | < 10 | – | – | – | – | – | – | – | – | – | 0 | – | – | – | – | – | – | – | 0 | – |
| CSc1nccs1 [Example 25, 2-(methylsulfanyI)-1,3-thiazole] | 12 | 140 | – | 85 | 76 | 73 | 58 | 50 | 32 | 20 | 2 | 2 | – | 81 | 80 | 80 | 76 | 74 | 67 | 53 | Average nitrification [%] in Nitrosospira multiformis (Nitrosospira multiformis; 57 μM): 62%; Average nitrification [%] in Nitrosospira multiformis (Nitrosospira multiformis; 100 μM): 53% |

Second part, led by results:

| IC50 (Nitrosomonas europaea) [µM] | IC50 (Nitrosospira multiformis) [µM] | SMILES | nitrification inhibition, in words (Nitrosomonas europaea) | Average nitrification [%] in Nitrosomonas europaea (Nitrosomonas europaea; 2 μM) [%] | Average nitrification [%] in Nitrosomonas europaea (Nitrosomonas europaea; 3.5 μM) [%] | Average nitrification [%] in Nitrosomonas europaea (Nitrosomonas europaea; 6 μM) [%] | Average nitrification [%] in Nitrosomonas europaea (Nitrosomonas europaea; 11 μM) [%] | Average nitrification [%] in Nitrosomonas europaea (Nitrosomonas europaea; 19 μM) [%] | Average nitrification [%] in Nitrosomonas europaea (Nitrosomonas europaea; 33 μM) [%] | Average nitrification [%] in Nitrosomonas europaea (Nitrosomonas europaea; 57 μM) [%] | Average nitrification [%] in Nitrosomonas europaea (Nitrosomonas europaea; 100 μM) [%] | activity at 100 µM (Nitrosomonas europaea) [%] | nitrification inhibition, in words (Nitrosospira multiformis) | Average nitrification [%] in Nitrosospira multiformis (Nitrosospira multiformis; 2 μM) [%] | Average nitrification [%] in Nitrosospira multiformis (Nitrosospira multiformis; 3.5 μM) [%] | Average nitrification [%] in Nitrosospira multiformis (Nitrosospira multiformis; 6 μM) [%] | Average nitrification [%] in Nitrosospira multiformis (Nitrosospira multiformis; 11 μM) [%] | Average nitrification [%] in Nitrosospira multiformis (Nitrosospira multiformis; 19 μM) [%] | Average nitrification [%] in Nitrosospira multiformis (Nitrosospira multiformis; 33 μM) [%] | activity at 100 µM (Nitrosospira multiformis) [%] | other results |
| --- | --- | --- | --- | --- | --- | --- | --- | --- | --- | --- | --- | --- | --- | --- | --- | --- | --- | --- | --- | --- | --- |
| 13 | 1.3 | S=c1[nH]ccs1 [Example 24, 3H-1,3-thiazole-2-thione] | nearly completely inhibits nitrification | 79 | 78 | 76 | 74 | 60 | 43 | 20 | 1 | 1 | very strong effect | 25 | 4 | 0 | 0 | 0 | 0 | 0 | Average nitrification [%] in Nitrosospira multiformis (Nitrosospira multiformis; 57 μM): 0%; Average nitrification [%] in Nitrosospira multiformis (Nitrosospira multiformis; 100 μM): 0% |
| < 2 | < 0.8 | CN(Cc1c(Cl)nc2sccn12)CN1CCSC1=S [Example 1, 3-[[(6-chloroimidazo[2,1-b][1,3]thiazol-5-yl)methyl-methylamino]methyl]-1,3-thiazolidine-2-thione] | strongly inhibited nitrification | – | – | – | – | – | – | – | – | 0 | strongly inhibited nitrification | – | – | – | – | – | – | 0 | – |
| 11 | < 3.5 | CN(Cc1nc2ccccc2s1)CN1CCOC1=S [Example 5, 3-[[1,3-benzothiazol-2-ylmethyl(methyl)amino]methyl]-1,3-oxazolidine-2-thione] | strong nitrification inhibition | – | – | – | – | – | – | – | – | 0 | strong nitrification inhibition | – | – | – | – | – | – | 0 | – |
